Patent EP2657347A1, “Electrochemical competitive assay and use thereof” (Université Paris Diderot - Paris 7, priority 2012, dated 2013)
Read-outs that look alike come from different tables or passages of the source.

Assays:
[1] = tested on: 49-mer scramble oligonucleotide; test: Redox-mediated catalytic cyclic voltammetry titration with random DNA control; format: binding; settings: random sequence with the same GC ratio
Protocol: 2-Amino-1,3-propanediol hydrochloride (Aldrich), 2-amino-1,3-propanediol (Aldrich), NaCl (Fluka), MgCl2 (Sigma), 1-tyrosinamide (Aldrich), d-tyrosinamide (Millegen, France), paracetamol (Aldrich) and tyrosine (Sigma), triphenylphosphine (Aldrich), diethylazidocarboxylate solution (DEAD) (Aldrich), and ferrocene methanol (Aldrich) were used without further purification. All syntheses were performed with freshly distilled solvents (THF and MeOH). The oligonucleotides (1-DNA and d-DNA) were synthesized and HPLC-purified by Eurogentec (Anger, France) and their concentration was controlled by UV-Vis spectroscopy using a Nanodrop 2000 spectrophotometer (ThermoFisher). The oligonucleotides sequences were: • Apt49-T: (SEQ ID NO: 1) 5'-[…] ― 3' • Scramble: (SEQ ID NO: 2) 5'- […] ― 3'
All experiments were performed in 5 mM Tris buffer (pH 7) containing 10 mM MgCl2 and 50 mM NaCl (Recognition Buffer, RBr). The L-Tym concentration is always 5 µM. For cyclic voltammetric experiments, 1 µM [Os(bpy)3]2+ with 5 µM 1-Tym in a droplet of 50 µL RBr was used. So, before each experiment, the droplet is shaking with a micropipette. This procedure is repeated until we obtain a reproducible and stable voltammogram. Mother solution of Fc-1-Tym was a […] solution in DMF. This product is conserved at 4°C and seal with parafilm. […]

[2] = biological target: anti-L-tyrosinamide aptamer; settings: previously determined by isothermal titration calorimetry; cited from earlier work
D-Apt49 [3] = test: Homogeneous electrochemical competitive binding assay in Tris buffer; settings: 5 µM Fc-L-Tym, K^*d fixed at 1.2 µM
Protocol: (§1) All experiments were performed in 5 mM Tris buffer (pH 7) containing 10 mM MgCl2 and 50 mM NaCl (Recognition Buffer, RBr). The L-Tym concentration is always 5 µM. For cyclic voltammetric experiments, 1 µM [Os(bpy)3]2+ with 5 µM 1-Tym in a droplet of 50 µL RBr was used. So, before each experiment, the droplet is shaking with a micropipette. This procedure is repeated until we obtain a reproducible and stable voltammogram. Mother solution of Fc-1-Tym was a […] solution in DMF. This product is conserved at 4°C and seal with parafilm. Before each experiment, this solution is diluted 10 times in stabilized DMF, such as 0.2 µL in 50 µL of RBr leads to 5 µM of Fc-1-Tym.
(§2) Cyclic voltammetry measurements were performed with an AUTOLAB PGSTAT 12 potentiostat/galvanostat controlled by computer, and the data were acquired using GPES 4.9007 software (EcoChemie, The Netherlands). Small self-contained electrochemical cells made of 3 screen-printed electrodes on a flat substrate were used for all experiments. The electrodes were printed using a DEK model-65 screen-printer. Working electrodes were 4 mm diameter screen-printed carbon electrodes prepared using a commercial carbon ink (Electrodag PF-470 A) deposited on the top of an underlying Ag layer (Electrodag 418 SS). Counter electrode was obtained using an Ag ink (Electrodag 418 SS).
(§3) Before experiments, the screen-printed carbon electrodes were coated with bovine serum albumin (BSA) by immersing the electrodes in a 1 mg/mL BSA solution for 10 minutes at room temperature. The BSA-modified electrodes were next cycled between 0 V and 0.8 V at v = 0.05 V/s, until of the capacitive background current in cyclic voltammetry was stablized.
The competitive assay can be described by the two equilibrated binding reactions 6a and 6b, in which Fc-L-Tym is L-tyrosinamide labeled by a redox-active ferrocene group. The ferrocenyl label was here incorporated on the ―OH position of the phenolic group (Scheme 1). Note that under this condition the catalytic oxidation of the phenolic residue is no more possible and only the ferrocene labeled molecule can be detected. [drawing 63] [drawing 64] with Kd = (CTCR)/CRT [formula] Kd^(*) = (CT^(*)CR)/CRT^(*) [formula] where CR is the concentration of free aptamer receptor. […] Ideally, the two binding constants should be as close as possible (Kd ≈ K^*d). The value of K^*d was determined by monitoring in CV the reversible response of 5 µM Fc-L-Tym solution as a function of increasing concentrations of D-Apt49.
The competitive binding assay was achieved from two separate solutions containing a starting mixture of 5 µM Fc- L-Tym and 3 µM or 10 µM D-Apt49, and to which an increasing amount of L-Tym was added. […]

[4] = biological target: anti-L-tyrosinamide aptamer; settings: previously determined by fluorescence polarization; cited from earlier work
D-Apt49 [5] = test: Redox-mediated catalytic cyclic voltammetry titration with aptamer; format: binding
Protocol: as §1, §2, §3
The 49-mer aptamer we have used (see here above) is a sequence similar to the one that was previously selected by Vianini et al and successfully applied to chromatographic- and fluorescence-based L-Tym assays. Since direct electrochemical oxidation of phenolic compounds generally leads to electrode passivation and thus to poorly reproducible anodic peak current in cyclic voltammetry (CV), the electrochemical detection of L-Tym was performed by redox-mediated catalytic oxidation of the phenolic function. For such a purpose, we have used the one-electron redox mediator couple [Os^III/II(bpy)3]^3+/2+ which, according to its relatively high standard potential (E^0=+0.58 V vs. Ag/AgCl), is capable to efficiently catalyze the oxidation of phenolic compounds. [drawing 51]
The linear dependence of the peak current with both the square root of scan rate, v, and L-Tym concentration, indicates conditions of total catalysis for which the catalytic peak current response, ip, can be expressed by eq 1. ip = 0.609nFSCT^0 sqrt(DT)sqrt(fv/RT) [formula] where n is the number of electron involved in the catalytic reaction, F the Faraday constant, S the electrode area, C^0T the bulk concentration of L-Tym, and DT the diffusion coefficient of L-Tym. After aptamer addition, the binding reaction (eq 2) is rapidly set at equilibrium. [drawing 53] with Kd the dissociation constant. On the basis of a classical law of action mass and mass balance (i.e., C^0T = CT + CRT, with CT and CRT the free and receptor-bound target concentrations), and assuming a 1:1 binding stoichiometry, the free (χƒ) mole fraction of target in the bulk solution can thus be estimated by eq 3. χf = (CT)/(CT^0) = 1-(Kd + CT^0 + CR^0 -sqrt(((Kd+CT^0+CR^0))^2 -4CT^0 CR^0))/(2CT^0) [formula]
Here, C^0R is the total concentration of the aptamer receptor added to the solution. Under the assumption of a slow interconversion of free and bound target on the time scale of CV experiments, the catalytic peak current can thus be expressed by a linear combination of the catalytic currents related to the free and bound target through eq 4. ip = 0.609nFSCT^0 sqrt(fv/RT)[χfsqrt(DT)+(1-χf)sqrt(DRT)] [formula] where DT and DRT are the diffusion coefficients of the free and receptor-bound target, respectively. […]

Kd (D-Apt49 [3]; 3 µM D-Apt49, Tris buffer): 2800 ± 400 nM | Kd (D-Apt49 [3]; 10 µM D-Apt49, Tris buffer): 2200 ± 600 nM | Kd (D-Apt49 [5]; 5 µM target, 1 µM [Os(bpy)3]2+, 5 mM Tris buffer pH 7.0, 50 mM NaCl, 10 mM MgCl2, nonlinear fit of eq 5): 2900 ± 300 nM | DRT (diffusion coefficient of the receptor-bound target) (D-Apt49 [5]; L-Tym bound to D-Apt49, assuming one electron exchanged): 1.4 × 10^-6 cm^2 s^-1 | DT (diffusion coefficient of the free target) (D-Apt49 [5]; free L-Tym, assuming one electron exchanged): 7 × 10^-6 cm^2 s^-1
Compound: NC(=O)[C@@H](N)Cc1ccc(O)cc1 [L-Tym, L-tyrosinamide]
current response when the aptamer was replaced by a 49-mer random DNA sequence [1]: no significant current response decrease | Kd [2]: 1750 to 3200 nM | Kd [4]: 1700 to 2200 nM
